Reference: patent US20120219638A1, “Method and Compositions for Treating Plant Infections” (priority 2006, published 2012)

Key:
[1] = tested on: Erwinia amylovora (fire blight); assay: Fire blight field trial on apple trees, one spray at full bloom: disease incidence and severity; assay type: in vivo; conditions: for Disease incidence (# of trees): standard, concentration not given, one spray at full bloom
Description: Experimental design: Three cultivars, 8 treatments and four blocks. In each block there is one tree per cultivar per treatment (four trees per cultivar per treatment). Treatments are randomized within each cultivar in each block.
When the forecast predicts favorable conditions, treatments were applied within 24-48 hours. Note: Oxysilver compound was a mixture of oxysilver bisulphate and oxysilver nitrate, with oxysilver bisulphate as the dominant compound.
(§1) Three apple varieties (Gala, Fuji, and Golden) were treated with one spray of oxysilver at full-bloom. There were a total of eight treatments: 1. Untreated control, 2. Streptomycin standard, 3. Oxytetracycline standard, 4. Oxysilver compound 0.005% (w/v), 5. Oxysilver compound 0.05%, 6. Oxysilver compound 0.1%, 7. Oxysilver compound 0.5%, and 8. Oxysilver compound 1.0%. The trees were evaluated once a week for disease severity and phytotoxicity. Apples were harvested. Each treatment and variety combination was repeated four times. Disease incidence through blossom infections was monitored. Infections four weeks or so after bloom are not due to blossom infections and are not typically treated by growers.
(§2) Disease incidence was recorded as the number of trees showing infections per treatment. Disease severity was rated as follows: 0—No disease, 1—One—two infected shoots, 2—Two-four infected shoots, 3—Four or more infected shoots or one systemic canker, 4—Two or more systemic cankers. […] After harvest, apples from untreated trees and trees treated with 0.005% and 1% oxysilver compound were sent to an independent lab for testing of silver accumulation in the fruit. For comparison, oxysilver compound was sprayed directly on some apples.
(§3) Statistical analysis was done using SAS 9.3 Proc glimmix and Proc GLM.

[2] = tested on: apple varieties (Gala, Fuji, and Golden); assay: Phytotoxicity of leaf and fruit on treated apple trees; assay type: in vivo; conditions: standard, concentration not given; for Phytotoxicity (leaf) (average): rating 0 (none) to 4 (50-100% of leaf area necrotic); for Phytotoxicity (fruit) (average): rating 0 (none) to 4 (severe deformation)
Description: as §1, §2, §3

Row | SMILES | Disease incidence (# of trees) [1] | Phytotoxicity (leaf) (average) [2] [c] | Phytotoxicity (fruit) (average) [2] [c] | Disease severity compared with untreated control ([1]; all oxysilver treatments and streptomycin standard, p=0.05, systemic cankers in untreated control)
1 | CN(C)[C@@H]1C(O)=C(C(N)=O)C(=O)[C@@]2(O)C(O)=C3C(=O)c4c(O)cccc4[C@@](C)(O)[C@H]3[C@H](O)[C@@H]12 [Oxytetracycline, oxytetracycline] | 1 ab # of trees | 0 | 0 | –
2 | [H]/N=C(/N)N[C@H]1[C@H](O)[C@@H](O)[C@H](O[C@@H]2O[C@@H](C)[C@](O)(C=O)[C@H]2O[C@@H]2O[C@@H](CO)[C@H](O)[C@@H](O)[C@@H]2NC)[C@@H](N/C(N)=N\[H])[C@@H]1O [Streptomycin, streptomycin] | 1 ab # of trees | 0 | 0 | significantly higher in the untreated control
